Columns and labels:
[1] = test system: RAS-mutant NSCLC cell lines; assay: Induction of apoptosis (caspase 3/7 activation) in panel of RAS-mutant NSCLC cell lines; format: cell-based; conditions: Ras mut NSCLC cell lines, caspase 3/7 activation, 24 hours of treatment, trihydrate
Description: (§2) A panel of 24 non-small cell lung carcinoma (NSCLC) cell lines harboring RAS mutations was analyzed for genomic alterations, gene expression profiling and protein phosphorylation in MAPK and PI3K pathways. Inhibition of cell growth and induction of apoptosis were determined by CellTiter-Glo® and caspase 3/7 activation assays after 72 and 24 hours of treatment, respectively.

Calu6 NSCLC cells = assay: Caspase 3/7 activation, Calu6; format: cell-based; set-up: key: −: lack of caspase 3/7 activation after 24 hours of compound treatment; ++: moderate; +++: strong; ++++: very strong; conditions: Calu6, KRAS^Q61K; BRG1 WT, LKB1 WT, CDKN2A WT; 24 hours
Description: (§3) Inhibition of cell growth and induction of apoptosis were determined by CellTiter-Glo® and caspase 3/7 activation assays after 72 and 24 hours of treatment, respectively.

HOP62 NSCLC cells = assay: Caspase 3/7 activation, HOP62; format: cell-based; set-up: key: −: lack of caspase 3/7 activation after 24 hours of compound treatment; ++: moderate; +++: strong; ++++: very strong; conditions: HOP62, KRAS^G12c; BRG1 WT, LKB1 WT, CDKN2A MUT; 24 hours
Description: as §2

Calu1 NSCLC cells = assay: Caspase 3/7 activation, Calu1; format: cell-based; set-up: key: −: lack of caspase 3/7 activation after 24 hours of compound treatment; ++: moderate; +++: strong; ++++: very strong; conditions: Calu1, KRAS^G12c; BRG1 WT, LKB1 WT, CDKN2A WT; 24 hours
Description: as §2

SW1573 NSCLC cells = assay: Caspase 3/7 activation, SW1573; format: cell-based; set-up: key: −: lack of caspase 3/7 activation after 24 hours of compound treatment; ++: moderate; +++: strong; ++++: very strong; conditions: SW1573, KRAS^G12C; BRG1 WT, LKB1 WT, CDKN2A MUT; 24 hours
Description: as §2

COR-L23 NSCLC cells = assay: Caspase 3/7 activation, COR-L23; format: cell-based; set-up: key: −: lack of caspase 3/7 activation after 24 hours of compound treatment; ++: moderate; +++: strong; ++++: very strong; conditions: COR-L23, KRAS^G12V; BRG1 WT, LKB1 WT, CDKN2A WT; 24 hours
Description: as §2

H2009 NSCLC cells = assay: Caspase 3/7 activation, H2009; format: cell-based; set-up: key: −: lack of caspase 3/7 activation after 24 hours of compound treatment; ++: moderate; +++: strong; ++++: very strong; conditions: H2009, KRAS^G12A; BRG1 WT, LKB1 WT, CDKN2A WT; 24 hours
Description: as §3

[2] = test system: RAS-mutant NSCLC cell lines; assay: Inhibition of cell growth (CellTiter-Glo) in panel of RAS-mutant NSCLC cell lines; conditions: Ras mut NSCLC cell lines; CellTiter-Glo, 72 hours of treatment
Description: Cells are plated in 384-well plates at 500 cells/well in culture media appropriate for each cell type, supplemented with 10% FBS and 1% penicillin/streptomycin, and incubated overnight at 37° C., 5% CO2. Cells are treated in a grid manner with dilution of Compound A^2 (20 dilutions, including no compound, of 2-fold dilutions starting from 1-20 μM depending of compound) from left to right on 384-well plate and also treated with Compound B^2 (20 dilutions, including no compound, of 2-fold dilutions starting from 1-20 μM depending of compound) from top to bottom on 384-well plate and incubated as above for a further 72 hours. In some instances compounds are added in a staggered manner and incubation time can be extended up to 7 days. Cell growth is measured using CellTiter-Glo® reagent according to the manufacturer's protocol and signals are read on a PerkinElmer EnVision™ reader set for luminescence mode with a 0.5-second read.
Results are expressed as a percentage of the t=0 value and plotted against compound(s) concentration. The t=0 value is normalized to 100% and represents the number of cells present at the time of compound addition. The cellular response is determined for each compound and/or compound combination using a 4- or 6-parameter curve fit of cell viability against concentration using the IDBS XLfit plug-in for Microsoft Excel software and determining the concentration required for 50% inhibition of cell growth (gIC50). Background correction is made by subtraction of values from wells containing no cells.
as §2

[3] = test system: cell lines carrying activating mutations of B-Raf; assay: Cell proliferation assays, B-Raf mutant cell lines; format: cell-based; conditions: in vitro
Description: (§1) MEK proteins are a node in a certain extracellular signal-related kinase ERK pathway which is commonly hyper-activated In tumor cells. Oncogenic mutations in both B-raf and Ras signal through MEK1 and MEK2. In vitro, 80% of cell lines carrying activating mutations of B-Raf and 72% of Ras mutant cell lines were sensitive to N-{3-[3-cyclopropyl-5-(2-fluoro-4-iodo-phenylamino)-6,8-dimethyl-2,4,7-trioxo-3,4,6,7-tetrahydro-2H-pyrido[4,3-d]pyrimidin-1-yl]phenyl}acetamide, or a pharmaceutically acceptable salt in cell proliferation assays, and a majority (83% of hematopoietic cancers from acute or chronic myeloid leukemia (AML or CML, respectively) origins were also very sensitive.

Ras mutant cell lines = assay: Cell proliferation assays, Ras mutant cell lines; format: cell-based; conditions: in vitro
Description: as §1

[4] = test system: hematopoietic cancers from acute or chronic myeloid leukemia (AML or CML) origins; assay: Cell proliferation assays, AML/CML lines; format: cell-based; conditions: in vitro
Description: as §1

SMILES	Response Rate (sensitivity/total lines tested), Cell Apoptosis (capsase 3/7) ([1]; listed as docetaxel) [%]	Response Rate (sensitivity/total lines tested), Cell Apoptosis (capsase 3/7) [1]	Apoptosis Response (caspase 3/7 activation) (Calu6 NSCLC cells)	Apoptosis Response (caspase 3/7 activation) (HOP62 NSCLC cells)	Apoptosis Response (caspase 3/7 activation) (Calu1 NSCLC cells)	Apoptosis Response (caspase 3/7 activation) (SW1573 NSCLC cells)	Apoptosis Response (caspase 3/7 activation) (COR-L23 NSCLC cells)	Apoptosis Response (caspase 3/7 activation) (H2009 NSCLC cells)	Response Rate (sensitivity/total lines tested), Cell growth inhibition [2]	Share of cell lines sensitive in cell proliferation assays [3] [%]	Share of cell lines sensitive in cell proliferation assays (Ras mutant cell lines) [%]	Share of hematopoietic cancers very sensitive in cell proliferation assays [4] [%]
CC(=O)O[C@@]12CO[C@@H]1C[C@H](O)[C@@]1(C)C(=O)[C@H](O)C3=C(C)[C@@H](OC(=O)[C@H](O)[C@@H](NC(=O)OC(C)(C)C)c4ccccc4)C[C@@](O)([C@@H](OC(=O)c4ccccc4)[C@H]21)C3(C)C [Docataxel, (2R,3S)—N-carboxy-3-phenylisoserine,N-tert-butyl ester, 13-ester with 5β-20-epoxy-1,2α,4,7β,10β,13α-hexahydroxytax-11-en-9-one 4-acetate 2-benzoate, trihydrate]	42	42% (10/24)	++	++	−	−	−	−	88% (21/24)			
CC(=O)Nc1cccc(-n2c(=O)n(C3CC3)c(=O)c3c(Nc4ccc(I)cc4F)n(C)c(=O)c(C)c32)c1 [Compound A, N-{3-[3-cyclopropyl-5-(2-fluoro-4-iodo-phenylamino)-6,8-dimethyl-2,4,7-trioxo-3,4,6,7-tetrahydro-2H-pyrido[4,3-d]pyrimidin-1-yl]phenyl}acetamide]			++	−	−	−	−	−	38% (9/24)	80	72	83
